Source: the supplement of paper PMC8612539
Values after ≈ are worked out from the molar mass of the structure shown.

Test system: Escherichia coli
Assay: minimum inhibitory concentration (MIC)
Protocol: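 Broth microdilution MIC (Sensititre BOPO7F bovine plate, CLSI methods) of 19 antimicrobials against field isolates of P. multocida, M. haemolytica, H. somni (deep nasopharyngeal swabs) and E. coli, Enterococcus spp. (rectal swabs) from weaned dairy heifers. Incubation 16-24 h at 35 C. MIC is the lowest concentration preventing visible growth. Values with <= or > lie at the tested range limits. Trimethoprim-sulfamethoxazole is given as the trimethoprim component of a 1:19 mixture.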

SMILES: CN[C@@H]1[C@H](O)[C@H](NC)[C@H]2O[C@@]3(O)C(=O)C[C@@H](C)O[C@H]3O[C@@H]2[C@H]1O [Spectinomycin]
- minimum inhibitory concentration (isolate (source animal id): 8): 16 mg/L (≈ 48.1 µM)
- minimum inhibitory concentration (isolate (source animal id): 9): > 64 mg/L
- minimum inhibitory concentration (isolate (source animal id): 10): 64 mg/L (≈ 193 µM)
- minimum inhibitory concentration (isolate (source animal id): 11): 16 mg/L (≈ 48.1 µM)
- minimum inhibitory concentration (isolate (source animal id): 12): 32 mg/L (≈ 96.3 µM)
- minimum inhibitory concentration (isolate (source animal id): 13): 16 mg/L (≈ 48.1 µM)
- minimum inhibitory concentration (isolate (source animal id): 14): > 64 mg/L
- minimum inhibitory concentration (isolate (source animal id): 15): 16 mg/L (≈ 48.1 µM)
- minimum inhibitory concentration (isolate (source animal id): 16): 16 mg/L (≈ 48.1 µM)
- minimum inhibitory concentration (isolate (source animal id): 98): 16 mg/L (≈ 48.1 µM)
- minimum inhibitory concentration (isolate (source animal id): 99): 16 mg/L (≈ 48.1 µM)
- minimum inhibitory concentration (isolate (source animal id): 100): ≤ 8 mg/L
- minimum inhibitory concentration (isolate (source animal id): 101): > 64 mg/L
- minimum inhibitory concentration (isolate (source animal id): 102): 16 mg/L (≈ 48.1 µM)
- minimum inhibitory concentration (isolate (source animal id): 103): > 64 mg/L
- minimum inhibitory concentration (isolate (source animal id): 104): 16 mg/L (≈ 48.1 µM)
- minimum inhibitory concentration (isolate (source animal id): 105): 16 mg/L (≈ 48.1 µM)
- minimum inhibitory concentration (isolate (source animal id): 106): 32 mg/L (≈ 96.3 µM)
- minimum inhibitory concentration (isolate (source animal id): 107): 16 mg/L (≈ 48.1 µM)
- minimum inhibitory concentration (isolate (source animal id): 108): 16 mg/L (≈ 48.1 µM)
- minimum inhibitory concentration (isolate (source animal id): 109): 16 mg/L (≈ 48.1 µM)
- minimum inhibitory concentration (isolate (source animal id): 110): ≤ 8 mg/L
- minimum inhibitory concentration (isolate (source animal id): 111): 16 mg/L (≈ 48.1 µM)
- minimum inhibitory concentration (isolate (source animal id): 112): 16 mg/L (≈ 48.1 µM)
- minimum inhibitory concentration (isolate (source animal id): 113): 16 mg/L (≈ 48.1 µM)
- minimum inhibitory concentration (isolate (source animal id): 114): 16 mg/L (≈ 48.1 µM)
- minimum inhibitory concentration (isolate (source animal id): 115): > 64 mg/L
- minimum inhibitory concentration (isolate (source animal id): 116): 16 mg/L (≈ 48.1 µM)
- minimum inhibitory concentration (isolate (source animal id): 117): > 64 mg/L
- minimum inhibitory concentration (isolate (source animal id): 118): 16 mg/L (≈ 48.1 µM)
- minimum inhibitory concentration (isolate (source animal id): 119): > 64 mg/L
- minimum inhibitory concentration (isolate (source animal id): 120): > 64 mg/L
- minimum inhibitory concentration (isolate (source animal id): 121): > 64 mg/L
- minimum inhibitory concentration (isolate (source animal id): 122): > 64 mg/L
- minimum inhibitory concentration (isolate (source animal id): 123): 16 mg/L (≈ 48.1 µM)
- minimum inhibitory concentration (isolate (source animal id): 124): > 64 mg/L
- minimum inhibitory concentration (isolate (source animal id): 125): > 64 mg/L
- minimum inhibitory concentration (isolate (source animal id): 126): > 64 mg/L
- minimum inhibitory concentration (isolate (source animal id): 127): > 64 mg/L
- minimum inhibitory concentration (isolate (source animal id): 128): > 64 mg/L
- minimum inhibitory concentration (isolate (source animal id): 129): 16 mg/L (≈ 48.1 µM)
- minimum inhibitory concentration (isolate (source animal id): 130): > 64 mg/L
- minimum inhibitory concentration (isolate (source animal id): 131): 16 mg/L (≈ 48.1 µM)
- minimum inhibitory concentration (isolate (source animal id): 132): 16 mg/L (≈ 48.1 µM)
- minimum inhibitory concentration (isolate (source animal id): 133): > 64 mg/L
- minimum inhibitory concentration (isolate (source animal id): 134): 16 mg/L (≈ 48.1 µM)
- minimum inhibitory concentration (isolate (source animal id): 135): 16 mg/L (≈ 48.1 µM)
- minimum inhibitory concentration (isolate (source animal id): 136): 16 mg/L (≈ 48.1 µM)
- minimum inhibitory concentration (isolate (source animal id): 137): 16 mg/L (≈ 48.1 µM)
- minimum inhibitory concentration (isolate (source animal id): 138): > 64 mg/L
- minimum inhibitory concentration (isolate (source animal id): 139): > 64 mg/L
- minimum inhibitory concentration (isolate (source animal id): 140): 16 mg/L (≈ 48.1 µM)
- minimum inhibitory concentration (isolate (source animal id): 141): > 64 mg/L
- minimum inhibitory concentration (isolate (source animal id): 142): 16 mg/L (≈ 48.1 µM)
- minimum inhibitory concentration (isolate (source animal id): 143): > 64 mg/L
- minimum inhibitory concentration (isolate (source animal id): 144): 16 mg/L (≈ 48.1 µM)
- minimum inhibitory concentration (isolate (source animal id): 145): > 64 mg/L
- minimum inhibitory concentration (isolate (source animal id): 146): 16 mg/L (≈ 48.1 µM)
- minimum inhibitory concentration (isolate (source animal id): 147): > 64 mg/L
- minimum inhibitory concentration (isolate (source animal id): 148): 16 mg/L (≈ 48.1 µM)
- minimum inhibitory concentration (isolate (source animal id): 149): 16 mg/L (≈ 48.1 µM)
- minimum inhibitory concentration (isolate (source animal id): 150): > 64 mg/L
- minimum inhibitory concentration (isolate (source animal id): 151): 16 mg/L (≈ 48.1 µM)
- minimum inhibitory concentration (isolate (source animal id): 152): 16 mg/L (≈ 48.1 µM)
- minimum inhibitory concentration (isolate (source animal id): 153): 16 mg/L (≈ 48.1 µM)
- minimum inhibitory concentration (isolate (source animal id): 154): 16 mg/L (≈ 48.1 µM)
- minimum inhibitory concentration (isolate (source animal id): 155): > 64 mg/L
- minimum inhibitory concentration (isolate (source animal id): 156): > 64 mg/L
- minimum inhibitory concentration (isolate (source animal id): 157): > 64 mg/L
- minimum inhibitory concentration (isolate (source animal id): 158): 16 mg/L (≈ 48.1 µM)
- minimum inhibitory concentration (isolate (source animal id): 159): ≤ 8 mg/L
- minimum inhibitory concentration (isolate (source animal id): 160): > 64 mg/L
- minimum inhibitory concentration (isolate (source animal id): 161): > 64 mg/L
- minimum inhibitory concentration (isolate (source animal id): 162): 16 mg/L (≈ 48.1 µM)
- minimum inhibitory concentration (isolate (source animal id): 163): 16 mg/L (≈ 48.1 µM)
- minimum inhibitory concentration (isolate (source animal id): 164): 16 mg/L (≈ 48.1 µM)
- minimum inhibitory concentration (isolate (source animal id): 165): > 64 mg/L
- minimum inhibitory concentration (isolate (source animal id): 166): ≤ 8 mg/L
- minimum inhibitory concentration (isolate (source animal id): 167): 16 mg/L (≈ 48.1 µM)
- minimum inhibitory concentration (isolate (source animal id): 168): 16 mg/L (≈ 48.1 µM)
- minimum inhibitory concentration (isolate (source animal id): 169): 16 mg/L (≈ 48.1 µM)
- minimum inhibitory concentration (isolate (source animal id): 170): 16 mg/L (≈ 48.1 µM)
- minimum inhibitory concentration (isolate (source animal id): 171): 16 mg/L (≈ 48.1 µM)
- minimum inhibitory concentration (isolate (source animal id): 172): 16 mg/L (≈ 48.1 µM)
- minimum inhibitory concentration (isolate (source animal id): 173): 16 mg/L (≈ 48.1 µM)
- minimum inhibitory concentration (isolate (source animal id): 174): 16 mg/L (≈ 48.1 µM)
- minimum inhibitory concentration (isolate (source animal id): 175): 16 mg/L (≈ 48.1 µM)
- minimum inhibitory concentration (isolate (source animal id): 176): 16 mg/L (≈ 48.1 µM)
- minimum inhibitory concentration (isolate (source animal id): 177): 32 mg/L (≈ 96.3 µM)
- minimum inhibitory concentration (isolate (source animal id): 178): 16 mg/L (≈ 48.1 µM)
- minimum inhibitory concentration (isolate (source animal id): 179): 16 mg/L (≈ 48.1 µM)
- minimum inhibitory concentration (isolate (source animal id): 180): 16 mg/L (≈ 48.1 µM)
- minimum inhibitory concentration (isolate (source animal id): 181): > 64 mg/L
- minimum inhibitory concentration (isolate (source animal id): 182): 16 mg/L (≈ 48.1 µM)
- minimum inhibitory concentration (isolate (source animal id): 183): 16 mg/L (≈ 48.1 µM)
- minimum inhibitory concentration (isolate (source animal id): 184): 16 mg/L (≈ 48.1 µM)
- minimum inhibitory concentration (isolate (source animal id): 185): 16 mg/L (≈ 48.1 µM)
- minimum inhibitory concentration (isolate (source animal id): 186): 16 mg/L (≈ 48.1 µM)
- minimum inhibitory concentration (isolate (source animal id): 187): 32 mg/L (≈ 96.3 µM)
- minimum inhibitory concentration (isolate (source animal id): 188): 32 mg/L (≈ 96.3 µM)
